These are literature values, as cited in US20240398886A1, “EFFECTIVE EYELID, FACE, HEAD AND BODY CLEANSER” (priority 2023, published 2024).

Each structure is given as a SMILES string.

The conditions of data set [1]: mammals; refs (12, 13).
The conditions of data set [2]: humans and warm-blooded vertebrates; refs (12, 13).

Consider `C/C=C(\C)C(=O)O[C@H]1C[C@@H](OC(C)=O)[C@@]2(C(=O)OC)CO[C@H]3[C@@H](O)[C@@](C)([C@]45O[C@@]4(C)[C@H]4C[C@@H]5O[C@@H]5OC=C[C@@]54O)[C@H]4[C@]1(CO[C@]4(O)C(=O)OC)[C@@H]32` [Azadirachtin], for which the genotoxicity entry in data set [1] was “without genotoxicity”. Further, the toxicity result in data set [2] is “non-toxic”.
